Among the data in PubChem BioAssay AID588786 (The Scripps Research Institute Molecular Screening Center, 2011) are IC50 values, retold here.

Activity calls are given as the source filed them. The rule behind the calls is not given here.

The test has as its target SARS coronavirus 3C-like protease (3CLpro). The test is described as follows: SARS 3CLpro protease inhibitor potency, late-stage follow-up, biochemical, fluorescence, dose response, set 4 (AID 588786). The conditions noted are these: recombinant 3CLpro, fluorogenic peptide cleavage.
`CC(C)(C)NC(=O)C(c1cccnc1)N(C(=O)c1ccco1)c1ccc(I)cc1` (stereo not given): the IC50 result is “inactive”.
As for `CC(C)(C)c1ccc(N(Cc2cccnc2)C(=O)c2cnc[nH]2)cc1`, the entry is “inactive”.
The value for `CC(C)(C)NC(=O)C(c1cccnc1)N(C(=O)c1ccco1)c1ccc(-c2cccn2C(=O)OC(C)(C)C)cc1` (stereo not given) was “inactive”; that for `CC(C)(C)NC(=O)C(c1cccnc1)N(C(=O)c1ccco1)c1ccc(-c2cccnc2)cc1` (stereo not given) was “inactive”.
For the compound `CC(C)(C)NC(=O)C(c1cccnc1)N(C(=O)c1ccco1)c1ccc(-c2cccc(F)c2F)cc1` (stereo not given), the IC50 is 3.2 µM.
Regarding `CC(C)(C)NC(=O)C(c1cccnc1)N(C(=O)c1ccco1)c1ccc(-c2ccccc2)cc1` (stereo not given), the IC50 was 2.3 µM.
The value for `COc1cccc(Oc2ccc(N(C(=O)c3ccco3)C(C(=O)NC(C)(C)C)c3cccnc3)cc2)c1` (stereo not given) was “inactive”.
As for `CC(C)(C)NC(=O)C(c1cccnc1)N(C(=O)c1ccco1)c1ccc(-c2cncnc2)cc1` (stereo not given), the figure is 4.5 µM.
As to `Cc1noc(C)c1-c1ccc(N(C(=O)c2ccco2)C(C(=O)NC(C)(C)C)c2cccnc2)cc1` (stereo not given), the IC50 result was “inactive”.
As for `CC(C)(C)NC(=O)C(c1cccnc1)N(C(=O)c1ccco1)c1ccc(OCc2ccccc2)cc1` (stereo not given), the IC50 entry is “inactive”.
